# Assay results as given in patent US20190202823A1, “N-SULFONYLATED PYRAZOLO[3,4-b]PYRIDIN-6-CARBOXAMIDES AND METHOD OF USE” (AbbVie S.à.r.l., priority 2015, published 2019).
# Target: T1, CFTR ΔF508 (Homo sapiens, UniProt P13569, DEL508-508)
# T1 construct: bronchial epithelial cells isolated from CF patients homozygous for the CFTR ΔF508 mutation; McGill University; Asterand; University of North Carolina hAEC-CF; host or cells: primary human bronchial epithelial cells from CF patients homozygous for ΔF508
# Experiment: Chronic TECC assay, primary bronchial epithelial cells from CF patients homozygous for CFTR ΔF508
# Format: cell-based
# Conditions: chronic TECC; with co-corrector and potentiator; AUC = full area under the curve upon forskolin stimulation
# Protocol: The TECC (Tranepithelial Clamp Circuit, EP-design) assay measures the functionality of the cystic fibrosis Transmembrane Conductance regulator (CFTR) by measuring the short circuit current (Isc) generated over the basolateral and apical membrane of lung epithelial cells. In TECC the transepithelial potential PD and transepithelial resistance (Rt) are measured in an open circuit and transformed to Ieq using Ohm's law. 24 Wells can be measured simultaneously allowing a higher throughput compared to Ussing chambers.
# For this purpose, bronchial epithelial cells isolated from CF patients homozygous for the CFTR ΔF508 mutation (hAEC-CF, Epithelix, Geneva, Switzerland; McGill University, Montreal, Qc; Asterand, Detroit, Mich.; University of North Carolina, Chapel Hill, N.C.) are plated on type IV collagen-coated Transwell® supports (Costar).
# For electrophysiological recording of the “chronic” experiments, the human airway epithelia are mounted in the TECC heating plate for electrophysiological measurement and kept at 37° C. The epithelia are bathed in a NaCl-Ringer solution (120 mM NaCl, 25 mM NaHCO3, 1.2 mM CaCl2), 1.2 mM MgCl2, 0.8 mM KH2PO4, 0.8 mM K2HP04, pH 7.4, 5 mM glucose) on both the basolateral and apical sides. Test compounds (corrector, co-corrector, 4-[(2R,4R)-4-({[1-(2,2-difluoro-1,3-benzodioxol-5-yl)cyclopropyl]carbonyl}amino)-7-(difluoromethoxy)-3,4-dihydro-2H-chromen-2-yl]benzoic acid, and potentiator, N-(3-carbamoyl-5,5,7,7-tetramethyl-4,7-dihydro-5H-thieno[2,3-c]pyran-2-yl)-1H-pyrazole-5-carboxamide), are re-added to the recording solution prior to measurement. […] Apical amiloride is used to inhibit the endogenous ENaC currents while forskolin is applied on both apical and basolateral side to stimulate CFTR. Measurements are done during a 20 minute timeframe with recordings every 2 minutes. The increase in Ieq is used as a measure for the increased CFTR activity, EC50 values can be generated by measuring impact of different concentrations of compound on Ieq on primary cells, for this purpose each transwell is treated with a different compound concentration. […] Raw data were normalized to percentage activity values using the equation: 100×(Sample−Negative control)/(Positive control−Negative Control).
# T1 sequence (P13569 with tags, fused parts or gaps DEL508-508): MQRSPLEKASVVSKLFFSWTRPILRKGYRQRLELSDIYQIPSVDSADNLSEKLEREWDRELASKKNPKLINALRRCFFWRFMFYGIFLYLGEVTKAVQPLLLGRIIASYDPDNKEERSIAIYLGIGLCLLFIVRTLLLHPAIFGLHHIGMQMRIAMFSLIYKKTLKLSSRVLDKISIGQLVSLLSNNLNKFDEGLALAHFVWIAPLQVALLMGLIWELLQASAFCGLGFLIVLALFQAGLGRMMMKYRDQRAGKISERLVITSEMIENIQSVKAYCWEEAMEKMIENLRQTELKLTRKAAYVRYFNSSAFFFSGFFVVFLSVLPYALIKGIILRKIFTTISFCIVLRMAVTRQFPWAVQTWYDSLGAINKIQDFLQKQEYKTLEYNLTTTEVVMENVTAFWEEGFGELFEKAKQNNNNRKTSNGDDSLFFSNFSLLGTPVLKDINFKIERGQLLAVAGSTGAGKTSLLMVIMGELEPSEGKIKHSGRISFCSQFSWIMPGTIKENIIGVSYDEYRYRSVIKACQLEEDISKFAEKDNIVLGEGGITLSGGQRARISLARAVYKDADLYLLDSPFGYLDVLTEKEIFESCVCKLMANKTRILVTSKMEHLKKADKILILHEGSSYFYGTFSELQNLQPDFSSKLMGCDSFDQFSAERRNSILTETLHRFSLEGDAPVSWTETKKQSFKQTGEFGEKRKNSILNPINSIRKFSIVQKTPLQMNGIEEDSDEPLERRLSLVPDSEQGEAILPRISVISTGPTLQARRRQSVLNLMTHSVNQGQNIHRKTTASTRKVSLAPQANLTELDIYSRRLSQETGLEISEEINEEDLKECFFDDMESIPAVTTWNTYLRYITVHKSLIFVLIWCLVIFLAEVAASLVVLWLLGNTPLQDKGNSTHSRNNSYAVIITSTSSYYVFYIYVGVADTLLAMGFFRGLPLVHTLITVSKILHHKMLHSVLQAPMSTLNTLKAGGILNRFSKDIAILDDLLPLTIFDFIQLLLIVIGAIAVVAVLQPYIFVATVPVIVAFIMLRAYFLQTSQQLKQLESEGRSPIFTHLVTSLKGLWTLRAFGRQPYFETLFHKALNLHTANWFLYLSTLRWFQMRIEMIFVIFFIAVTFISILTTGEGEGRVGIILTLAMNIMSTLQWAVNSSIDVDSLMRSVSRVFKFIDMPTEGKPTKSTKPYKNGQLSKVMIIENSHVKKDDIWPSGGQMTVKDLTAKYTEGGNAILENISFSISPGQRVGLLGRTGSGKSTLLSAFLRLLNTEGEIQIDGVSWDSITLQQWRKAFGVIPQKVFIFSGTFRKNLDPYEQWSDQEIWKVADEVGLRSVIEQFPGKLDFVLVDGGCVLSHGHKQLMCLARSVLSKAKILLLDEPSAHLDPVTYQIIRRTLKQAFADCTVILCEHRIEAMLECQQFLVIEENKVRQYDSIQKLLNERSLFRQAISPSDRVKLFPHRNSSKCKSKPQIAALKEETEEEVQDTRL
row,SMILES,EC50
1,CN(C)S(=O)(=O)NC(=O)c1cc(OCC2CCOCC2)c2c(C3CCC3)nn(-c3ccccc3)c2n1 [compound 334],100 nM
2,CC(C)N1CCN(C2CCN(c3cc(C(=O)NS(=O)(=O)N(C)C)nc4c3c(C3CCC3)nn4-c3ccc(F)cc3)CC2)CC1 [compound 382],100 nM

# Same assay, conditions: read-out: % Activity at 1 μM (AUC**)
row,SMILES,activity at 1 µM
1,"COCC1CCN(c2cc(C(=O)NS(C)(=O)=O)nc3c2c(C2CCC2)nn3-c2ccccc2)CC1 [Compound 185, 3-cyclobutyl-N-(methanesulfonyl)-4-[4-(methoxymethyl)piperidin-1-yl]-1-phenyl-1H-pyrazolo[3,4-b]pyridine-6-carboxamide]",453%
2,"CS(=O)(=O)NC(=O)c1cc(N2CCC(N3CCOCC3)CC2)c2c(C3CCC3)nn(-c3ccccc3)c2n1 [Compound 328, 3-cyclobutyl-N-(methanesulfonyl)-4-[4-(morpholin-4-yl)piperidin-1-yl]-1-phenyl-1H-pyrazolo[3,4-b]pyridine-6-carboxamide]",532%
3,"CS(=O)(=O)NC(=O)c1cc(N2CCC(CCN3CCOCC3)CC2)c2c(C3CCC3)nn(-c3ccccc3)c2n1 [Compound 331, 3-cyclobutyl-N-(methanesulfonyl)-4-{4-[2-(morpholin-4-yl)ethyl]piperidin-1-yl}-1-phenyl-1H-pyrazolo[3,4-b]pyridine-6-carboxamide]",537%
4,"COCC1CCN(c2cc(C(=O)NS(=O)(=O)CCO)nc3c2c(C2CCC2)nn3-c2ccccc2)CC1 [Compound 366, 3-cyclobutyl-N-(2-hydroxyethanesulfonyl)-4-[4-(methoxymethyl)piperidin-1-yl]-1-phenyl-1H-pyrazolo[3,4-b]pyridine-6-carboxamide]",428%
5,"COCC1CN(C2CCN(c3cc(C(=O)NS(=O)(=O)N(C)C)nc4c3c(C3CCC3)nn4-c3ccc(F)cc3)CC2)CCO1 (stereo not drawn) [Compound 379, 3-cyclobutyl-N-(dimethylsulfamoyl)-1-(4-fluorophenyl)-4-{4-[2-(methoxymethyl)morpholin-4-yl]piperidin-1-yl}-1H-pyrazolo[3,4-b]pyridine-6-carboxamide]",370%
6,"CC(C)Oc1nn(C2CCCCC2)c2nc(C(=O)NS(C)(=O)=O)cc(-c3ccc(C(=O)N4CC5CNCC5C4)cc3)c12 (stereo not drawn) [Compound 631, 1-cyclohexyl-4-[4-(hexahydropyrrolo[3,4-c]pyrrole-2(1H)-carbonyl)phenyl]-N-(methanesulfonyl)-3-[(propan-2-yl)oxy]-1H-pyrazolo[3,4-b]pyridine-6-carboxamide]",157%

# Same assay, conditions: read-out: % Activity at 1 μM (Ieq*)
row,SMILES,activity at 1 µM
1,"CS(=O)(=O)NC(=O)c1cc(-c2ccc(N3CCC(C#N)CC3)nc2)c2c(C3CCC3)nn(-c3ccccc3)c2n1 [Compound 71, 4-[6-(4-cyanopiperidin-1-yl)pyridin-3-yl]-3-cyclobutyl-N-(methanesulfonyl)-1-phenyl-H-pyrazolo[3,4-b]pyridine-6-carboxamide]",270%

# Same assay, conditions: read-out: % Activity at 3 μM (AUC**)
row,SMILES,activity at 3 µM
1,"CS(=O)(=O)NC(=O)c1cc(N2CCC(N3CCOCC3)CC2)c2c(C3CCC3)nn(-c3ccccc3)c2n1 [Compound 328, 3-cyclobutyl-N-(methanesulfonyl)-4-[4-(morpholin-4-yl)piperidin-1-yl]-1-phenyl-1H-pyrazolo[3,4-b]pyridine-6-carboxamide]",423%
2,"CS(=O)(=O)NC(=O)c1cc(N2CCC(N3CCCCC3)CC2)c2c(C3CCC3)nn(-c3ccccc3)c2n1 [Compound 365, 4-([1,4′-bipiperidin]-1′-yl)-3-cyclobutyl-N-(methanesulfonyl)-1-phenyl-1H-pyrazolo[3,4-b]pyridine-6-carboxamide]",522%
3,"O=C(NS(=O)(=O)N1CCOCC1)c1cc(N2CCC(CN3CCCC3)CC2)c2c(C3CCC3)nn(-c3ccccc3)c2n1 [Compound 380, 3-cyclobutyl-N-(morpholine-4-sulfonyl)-1-phenyl-4-{4-[(pyrrolidin-1-yl)methyl]piperidin-1-yl}-1H-pyrazolo[3,4-b]pyridine-6-carboxamide]",250%
4,"O=C(NS(=O)(=O)N1CCOCC1)c1cc(N2CCC(N3CCOCC3)CC2)c2c(C3CCC3)nn(-c3ccccc3)c2n1 [Compound 383, 3-cyclobutyl-N-(morpholine-4-sulfonyl)-4-[4-(morpholin-4-yl)piperidin-1-yl]-1-phenyl-1H-pyrazolo[3,4-b]pyridine-6-carboxamide]",299%
5,"CNS(=O)(=O)NC(=O)c1cc(N2CCC(N3CCOCC3)CC2)c2c(C3CCC3)nn(-c3ccc(F)cc3)c2n1 [Compound 517, 3-cyclobutyl-1-(4-fluorophenyl)-N-(methylsulfamoyl)-4-[4-(morpholin-4-yl)piperidin-1-yl]-H-pyrazolo[3,4-b]pyridine-6-carboxamide]",309%
6,"CN(C(=O)c1cc(N2CCC(N3CCOCC3)CC2)c2c(C3CCC3)nn(-c3ccccc3)c2n1)S(C)(=O)=O [Compound 656, 3-cyclobutyl-N-(methanesulfonyl)-N-methyl-4-[4-(morpholin-4-yl)piperidin-1-yl]-1-phenyl-1H-pyrazolo[3,4-b]pyridine-6-carboxamide]",198%
7,"COCC1CCN(c2cc(C(=O)N(C)S(C)(=O)=O)nc3c2c(C2CCC2)nn3-c2ccccc2)CC1 [Compound 657, 3-cyclobutyl-N-(methanesulfonyl)-4-[4-(methoxymethyl)piperidin-1-yl]-N-methyl-1-phenyl-1H-pyrazolo[3,4-b]pyridine-6-carboxamide]",358%
8,"CCS(=O)(=O)N(C)C(=O)c1cc(N2CCC(N3CCOCC3)CC2)c2c(C3CCC3)nn(-c3ccccc3)c2n1 [Compound 658, 3-cyclobutyl-N-(ethanesulfonyl)-N-methyl-4-[4-(morpholin-4-yl)piperidin-1-yl]-1-phenyl-1H-pyrazolo[3,4-b]pyridine-6-carboxamide]",260%

# Target: T2, ΔF508-CFTR (Homo sapiens, UniProt P13569, DEL508-508)
# T2 construct: host or cells: CFBE41o- cells, doxycycline-inducible expression
# Experiment: CFTR cell surface levels using HRP-tagged ΔF508-CFTR expressing CFBE cells, intrinsic corrector capacity
# Format: cell-based
# Design: % Activation: concentration or dose not given beside the values
# Conditions: HRP-tagged ΔF508-CFTR expressing CFBE41o- cells; compounds alone (intrinsic corrector capacity); 20 hours at 33° C.
# Text: Measuring CFTR Cell Surface Levels Using HRP-Tagged ΔF508-CFTR Expressing CFBE Cells
# The HRP-tagged ΔF508-CFTR cell assay measures the expression of CFTR-ΔF508 at the plasma membrane. CFTR-ΔF508 has a folding defect leading to absence of protein at the plasma membrane. This assay is used to evaluate the capacity of compounds to increase the expression of CFTR-ΔF508 at the plasma membrane. […] When HRP-tagged ΔF508-CFTR is present at the plasma membrane, the HRP enzyme activity can be measured. The amount of CFTR-ΔF508 that can be rescued to the plasma membrane is correlated with the amount of functional enzyme that can be measured.
# There are several ways to measure the capacity of compounds to rescue CFTR-ΔF508 to the plasma membrane; either compounds are evaluated on their own and the impact on plasma membrane levels is measured or compounds are evaluated in combination with a co-corrector, i.e. a compound that rescues CFTR-ΔF508 to the plasma membrane but rescue can be enhanced by addition of compounds due to a complementary mode of action.
# Activity of Compounds for their Intrinsic Corrector Capacity:
# On day four, L test compounds diluted in PBS were added to the plates at a final DMSO concentration of 0.1%. All compound plates contained negative controls (DMSO) and positive controls ([…] corrector, 3-[(2R,4R)-4-({[1-(2,2-difluoro-1,3-benzodioxol-5-yl)cyclopropyl]carbonyl}amino)-7-methoxy-3,4-dihydro-2H-chromen-2-yl]benzoic acid). Cell plates were incubated at 33° C., 5% CO2 for 20 hours. […] After incubation for 15 minutes in the dark, chemiluminescence was measured using a plate reader (EnVision®, Perkin Elmer). Raw data were normalized to percentage activity values using the equation: 100×(Sample−Negative control)/(Positive control−Negative Control).
# T2 sequence (P13569 with tags, fused parts or gaps DEL508-508): as above
SMILES,% Activation,EC50
CCS(=O)(=O)NC(=O)c1cc(-c2ccc(OC)cc2)c2c(C)nn(-c3ccccc3)c2n1 [compound 15],151.675%,
CCS(=O)(=O)NC(=O)c1cc(-c2cnc(N(C)C)nc2)c2c(C3CN(C(=O)OC)C3)nn(C3CCCCC3)c2n1 [compound 52],,11500 nM
CC(C)c1nn(C2CCCCC2)c2nc(C(=O)NS(C)(=O)=O)cc(-c3ccc(N4CCC(F)(F)C4)nc3)c12 [compound 64],,835 nM
CS(=O)(=O)NC(=O)c1cc(N2CC3(CCOCC3)C2)c2c(C3CCC3)nn(-c3ccccc3)c2n1 [compound 204],,978 nM
Cc1nn(C2CCCCC2)c2nc(C(=O)NS(=O)(=O)C3CC3)cc(-c3ccc(N4CCOCC4)cc3)c12 [compound 239],,99.2 nM
COCCS(=O)(=O)NC(=O)c1cc(-c2ccc(CN3CCOCC3)cc2)c2c(OC(C)C)nn(C3CCCCC3)c2n1 [compound 405],181.2%,
CC(C)Oc1nn(C2CCCCC2)c2nc(C(=O)NS(=O)(=O)N(C)C)cc(-c3ccc(CN4CCOCC4)cc3)c12 [compound 406],160.8%,
COCCS(=O)(=O)NC(=O)c1cc(N2CCC(N3CCOCC3)CC2)c2c(C3CCC3)nn(-c3ccc(F)cc3)c2n1 [compound 407],125.95%,
CN(C)S(=O)(=O)NC(=O)c1cc(N2CCC(CN3CCOCC3)CC2)c2c(C3CCC3)nn(-c3ccc(F)cc3)c2n1 [compound 409],272.74%,
CN1CCN(Cc2cc(C(=O)NS(C)(=O)=O)nc3c2c(C2CCC2)nn3-c2ccc(F)cc2)CC1 [compound 518],,10000 nM
